Where two headings read alike, the source gives them in different places.
Experiments:
caspase-9 = assay: Western blot, apoptosis proteins in MCF-7 cells; format: cell-based; settings: 2 μM, 24h
Procedure: (§1) FIG. 3 represents effect of compound 7d and 7h on p21 and caspase-9. MCF-7 cells were treated with 2 μM concentration of compounds 7d and 7h for 24h. The cell lysates were collected and probed with anti-bodies against p21 and caspase-9. beta-actin was used as loading control. Con: Control (untreated).
(§2) Activation of tumor suppressor gene p21 was the important regulator of apoptotic pathway caused by various stimuli. In many instances the apoptotic cell death is mediated by caspases, thus the possible involvement of p21 and caspase protein and its role in apoptosis has been investigated. MCF-7 cells were treated with 7d, 7h (the effective compounds of cell cycle arrest) 21a, 21d and CA-4 at 2 μM concentration.

p21 = assay: Western blot, apoptosis proteins in MCF-7 cells; format: cell-based; settings: 2 μM, 24h
Procedure: as §1, §2

[1] = test system: MCF-7 (Breast carcinoma) cells; assay: Cell cycle distribution by flow cytometry (FACS); format: cell-based; settings: MCF-7 cells, 2 μM, 24h
Procedure: FIG. 1 represents FACS analysis of cell cycle distribution of MCF-7 cells after treatment with compounds CA-4, 21a, 21d, 4c, 6d, 6e, 6f, 7d, 7h and 7j at 2 μM concentration for 24h and control cells are the cells treated with DMSO (0.25%).
(§3) In order to investigate the mechanism underlying the anti-proliferative effect of the compounds the cell cycle distribution was analyzed in K562 (Leukemia) and MCF-7 (Breast carcinoma) cell lines by flow cytometry. Compounds CA-4, 21a, 21d, 4c, 6d, 6e, 6f, 7d, 7h and 7j have shown 1.72%, 14%, 12%, 14%, 12%, 14%, 14%, 16%, 16% &12% in K562 cells and 49.63%, 21%, 20%, 18%, 21%, 21%, 21%, 24%, 23% and 23% in MCF-7 cell line respectively. […] Thus compound 7d was considered for further studies (FIG. 1).

K562 (Leukemia) cells = assay: Cell cycle distribution by flow cytometry; format: cell-based
Procedure: as §3

[2] = test system: microtubule network of MCF-7 cells; assay: Effect on microtubule network; format: cell-based; settings: 2 μM
Procedure: FIG. 2 represents effect of compound 7d, the effective compound on the microtubule network of MCF-7 cells untreated cells (Con), nocodazole (Noc) and 7d at 2 μM concentration. Microtubules and unassembled tubulin are shown in green and DNA was stained with nuclear dye DAPI (4,6-diamidino-2-phenylindole) is shown in blue colour.
Inhibition of tubulin is associated with G2/M cell cycle arrest by interrupting chromosome segregation and affecting mitotic spindle formation. […] It was considered of interest to understand the mechanism of anti-cancer activity of compound 7d with regard to interaction with microtubule system. MCF-7 breast cancer cells were treated with Nocodazole (Noc), 7d compounds at 2 μM concentration.

OVCAR-5 = assay: SRB anticancer assay, ovarian; format: cell-based, human; settings: OVCAR-5, 48 h
MALME-3M = assay: SRB anticancer assay, melanoma; format: cell-based, human; settings: MALME-3M, 48 h
OVCAR-3 = assay: SRB anticancer assay, ovarian; format: cell-based, human; settings: OVCAR-3, 48 h
EKVX = assay: SRB anticancer assay, non-small lung; format: cell-based, human; settings: 48 h
DU-145 = assay: SRB anticancer assay, prostate; format: cell-based, human; settings: DU-145, 48 h
SK-MEL-5 = assay: SRB anticancer assay, melanoma; format: cell-based, human; settings: SK-MEL-5, 48 h
NCI-H460 = assay: SRB anticancer assay, non-small lung; format: cell-based, human; settings: NCI-H460, 48 h
NCI-H522 = assay: SRB anticancer assay, non-small lung; format: cell-based, human; settings: NCI-H522, 48 h
MCF7 = assay: SRB anticancer assay, breast; format: cell-based, human; settings: MCF7, 48 h
BT-549 = assay: SRB anticancer assay, breast; format: cell-based, human; settings: BT-549, 48 h
SR = assay: SRB anticancer assay, leukemia; format: cell-based, human; settings: 48 h
KM12 = assay: SRB anticancer assay, colon; format: cell-based, human; settings: KM12, 48 h
SW-620 = assay: SRB anticancer assay, colon; format: cell-based, human; settings: SW-620, 48 h
SF-268 = assay: SRB anticancer assay, CNS; format: cell-based, human; settings: SF-268, 48 h
MOLT-4 = assay: SRB anticancer assay, leukemia; format: cell-based, human; settings: MOLT-4, 48 h
SK-OV-3 = assay: SRB anticancer assay, ovarian; format: cell-based, human; settings: SK-OV-3, 48 h
NCI-H226 = assay: SRB anticancer assay, non-small lung; format: cell-based, human; settings: NCI-H226, 48 h
SNB-19 = assay: SRB anticancer assay, CNS; format: cell-based, human; settings: SNB-19, 48 h
UO-31 = assay: SRB anticancer assay, renal; format: cell-based, human; settings: UO-31, 48 h
CAKI-1 = assay: SRB anticancer assay, renal; format: cell-based, human; settings: CAKI-1, 48 h
PC-3 = assay: SRB anticancer assay, prostate; format: cell-based, human; settings: PC-3, 48 h
U251 = assay: SRB anticancer assay, CNS; format: cell-based, human; settings: U251, 48 h
OVCAR-4 = assay: SRB anticancer assay, ovarian; format: cell-based, human; settings: OVCAR-4, 48 h
UACC-62 = assay: SRB anticancer assay, melanoma; format: cell-based, human; settings: UACC-62, 48 h
A549/ATCC = assay: SRB anticancer assay, non-small lung; format: cell-based, human; settings: 48 h
CCRF-CEM = assay: SRB anticancer assay, leukemia; format: cell-based, human; settings: 48 h
K-562 = assay: SRB anticancer assay, leukemia; format: cell-based, human; settings: K-562, 48 h
SN12C = assay: SRB anticancer assay, renal; format: cell-based, human; settings: 48 h
A498 = assay: SRB anticancer assay, renal; format: cell-based, human; settings: A498, 48 h
HS 578T = assay: SRB anticancer assay, breast; format: cell-based, human; settings: 48 h
SNB-75 = assay: SRB anticancer assay, CNS; format: cell-based, human; settings: SNB-75, 48 h
SK-MEL-28 = assay: SRB anticancer assay, melanoma; format: cell-based, human; settings: SK-MEL-28, 48 h
M14 = assay: SRB anticancer assay, melanoma; format: cell-based, human; settings: M14, 48 h
MDA-MB-435 = assay: SRB anticancer assay, melanoma; format: cell-based, human; settings: MDA-MB-435, 48 h
NCI-H23 = assay: SRB anticancer assay, non-small lung; format: cell-based, human; settings: NCI-H23, 48 h
HCT-116 = assay: SRB anticancer assay, colon; format: cell-based, human; settings: HCT-116, 48 h
HOP-62 = assay: SRB anticancer assay, non-small lung; format: cell-based, human; settings: HOP-62, 48 h
TK-10 = assay: SRB anticancer assay, renal; format: cell-based, human; settings: TK-10, 48 h
NCI-H322M = assay: SRB anticancer assay, non-small lung; format: cell-based, human; settings: 48 h
ACHN = assay: SRB anticancer assay, renal; format: cell-based, human; settings: 48 h
MDA-MB-231/ATCC = assay: SRB anticancer assay, breast; format: cell-based, human; settings: 48 h, read-out: GI50
HT29 = assay: SRB anticancer assay, colon; format: cell-based, human; settings: HT29, 48 h
IGROV1 = assay: SRB anticancer assay, ovarian; format: cell-based, human; settings: IGROV1, 48 h
SF-295 = assay: SRB anticancer assay, CNS; format: cell-based, human; settings: SF-295, 48 h
786-0 = assay: SRB anticancer assay, renal; format: cell-based, human; settings: 786-0, 48 h
RXF 393 = assay: SRB anticancer assay, renal; format: cell-based, human; settings: RXF 393, 48 h
UACC-257 = assay: SRB anticancer assay, melanoma; format: cell-based, human; settings: UACC-257, 48 h
HL-60 (TB) = assay: SRB anticancer assay, leukemia; format: cell-based, human; settings: HL-60 (TB), 48 h; read-out: GI50
LOX IMVI = assay: SRB anticancer assay, melanoma; format: cell-based, human; settings: 48 h
HCT-15 = assay: SRB anticancer assay, colon; format: cell-based, human; settings: HCT-15, 48 h
HCC-2998 = assay: SRB anticancer assay, colon; format: cell-based, human; settings: HCC-2998, 48 h
COLO 205 = assay: SRB anticancer assay, colon; format: cell-based, human; settings: COLO 205, 48 h
[3] = MDA-MB-231/ATCC (row head MDA-MB-)

SMILES: COc1ccc(/C=C\c2cc(OC)c(OC)c(OC)c2)cc1O [CA-4, Combretastatin A-4, reference compound]
- caspase-9 protein (Western blot) (caspase-9): increase
- p21 protein (Western blot) (p21): increase
- cells in G2/M phase [1]: 49.63%
- cells in G2/M phase (K562 (Leukemia) cells): 1.72%

SMILES: Nc1ccc(-c2nc3ccc(F)cc3s2)cc1 [Compound 21a, 4-(6-fluorobenzo[d]thiazol-2-yl)benzenamine]
- caspase-9 protein (Western blot) (caspase-9): increase
- p21 protein (Western blot) (p21): increase
- cells in G2/M phase [1]: 21%
- cells in G2/M phase (K562 (Leukemia) cells): 14%

SMILES: COc1cc2nc(-c3ccc(N)cc3)sc2c(OC)c1OC [Compound 21d, 4-(5,6,7-trimethoxybenzo[d]thiazol-2-yl)benzenamine]
- caspase-9 protein (Western blot) (caspase-9): increase
- p21 protein (Western blot) (p21): increase
- cells in G2/M phase [1]: 20%
- cells in G2/M phase (K562 (Leukemia) cells): 12%

SMILES: COC(=O)Nc1nc2ccc(C(=O)c3cccs3)cc2[nH]1 [Nocodazole, reference compound]
- microtubulin organization [2]: disrupted microtubulin organization

SMILES: Cc1cc(-c2nc3ccc(O)cc3s2)ccc1N [Compound 3b, reference compound]
- GI50 (OVCAR-5): 83.2 µM
- GI50 (MALME-3M): 83.2 µM
- GI50 (OVCAR-3): 38.9 µM
- GI50 (EKVX): 4.07 µM
- GI50 (DU-145): 33.9 µM
- GI50 (SK-MEL-5): 52.5 µM
- GI50 (NCI-H460): 38.9 µM
- GI50 (NCI-H522): 30.2 µM
- GI50 (MCF7): 56.2 µM
- GI50 (BT-549): 22.4 µM
- GI50 (SR): 21.9 µM
- GI50 (KM12): 57.6 µM
- GI50 (SW-620): 66.1 µM
- GI50 (SF-268): 35.5 µM
- GI50 (MOLT-4): 26.9 µM
- GI50 (SK-OV-3): 37.2 µM
- GI50 (NCI-H226): 60.3 µM
- GI50 (SNB-19): 45.7 µM
- GI50 (UO-31): 21.4 µM
- GI50 (CAKI-1): 34.7 µM
- GI50 (PC-3): 50.1 µM
- GI50 (U251): 31.6 µM
- GI50 (OVCAR-4): 37.2 µM
- GI50 (UACC-62): 57.6 µM
- GI50 (A549/ATCC): 34.7 µM
- GI50 (CCRF-CEM): 0.79 µM
- GI50 (K-562): 36.3 µM
- GI50 (SN12C): 38.9 µM
- GI50 (A498): 41.7 µM
- GI50 (HS 578T): 14.1 µM
- GI50 (SNB-75): 15.8 µM
- GI50 (SK-MEL-28): 64.6 µM
- GI50 (M14): 33.1 µM
- GI50 (MDA-MB-435): 89.1 µM
- GI50 (NCI-H23): 12.6 µM
- GI50 (HCT-116): 43.7 µM
- GI50 (HOP-62): 30.9 µM
- GI50 (TK-10): 77.6 µM
- GI50 (NCI-H322M): 39.8 µM
- GI50 (ACHN): 53.7 µM
- GI50 (MDA-MB-231/ATCC; [3]): 44.7 µM
- GI50 (MDA-MB-231/ATCC; listed as head printed 231/ATCC (second line of MDA-MB-231/ATCC)): 95.5 µM
- GI50 (HT29): 37.2 µM
- GI50 (IGROV1): 47.9 µM
- GI50 (SF-295): 31.6 µM
- GI50 (786-0): 29.5 µM
- GI50 (RXF 393): 30.2 µM

SMILES: Cc1cc(-c2nc3ccccc3s2)ccc1N [Compound 3a, reference compound]
- GI50 (UACC-257): 74.2 µM
- GI50 (HL-60 (TB)): 8.71 µM
- GI50 (EKVX): 34.7 µM
- GI50 (DU-145): 61.7 µM
- GI50 (SK-MEL-5): 21.9 µM
- GI50 (NCI-H460): 53.7 µM
- GI50 (NCI-H522): 32.4 µM
- GI50 (MCF7): 0.03 µM
- GI50 (BT-549): 0.1 µM
- GI50 (SR): 17.4 µM
- GI50 (LOX IMVI): 37.2 µM
- GI50 (MOLT-4): 19.5 µM
- GI50 (NCI-H226): 0.35 µM
- GI50 (UO-31): 6.45 µM
- GI50 (PC-3): 31.6 µM
- GI50 (U251): 66.1 µM
- GI50 (HCT-15): 47.9 µM
- GI50 (OVCAR-4): 0.54 µM
- GI50 (UACC-62): 70.8 µM
- GI50 (A549/ATCC): 28.8 µM
- GI50 (CCRF-CEM): 6.45 µM
- GI50 (K-562): 6.02 µM
- GI50 (SN12C): 50.1 µM
- GI50 (A498): 42.7 µM
- GI50 (HS 578T): 66.1 µM
- GI50 (SNB-75): 33.1 µM
- GI50 (M14): 57.6 µM
- GI50 (MDA-MB-435): 79.5 µM
- GI50 (NCI-H23): 58.9 µM
- GI50 (HCT-116): 43.7 µM
- GI50 (HCC-2998): 0.25 µM
- GI50 (TK-10): 0.18 µM
- GI50 (NCI-H322M): 43.7 µM
- GI50 (ACHN): 51.3 µM
- GI50 (MDA-MB-231/ATCC; [3]): 66.1 µM
- GI50 (HT29): 29.5 µM
- GI50 (IGROV1): 0.042 µM
- GI50 (SF-295): 64.6 µM
- GI50 (COLO 205): 51.3 µM
- GI50 (RXF 393): 70.6 µM
